Test results as given in patent publication US5663154A, “2',3'-dideoxy-3'-fluoro-purine ribonucleosides” (Glaxo Wellcome Inc., priority 1992, dated 1997).
“And” between values parts separate entries of the source, which are not always exact repeats. Equal entries are not always repeated.

Key:
HIV = assay: Antiviral activity against HIV: reversal of cytopathic effect in MT4 cells, propidium iodide dye uptake; format: cell-based; conditions: Human immunodeficiency virus 1, 120 h, HIV-1 (strain 3B) or HIV-2 (Zagury strain), not stated which, 5 days
Protocol: Anti-HIV activity of compounds of formula (I) was determined using the method of Averett D. R., 1989, J. Virol. Methods, 23, pp263-276, by measuring the ability of the compound to reverse the cytopathic effect of HIV infection. This was determined by a quantitative assessment of cell growth monitored at the fifth day post infection by a propidium iodide dye uptake test. MT4 cells were incubated with 100XTCID50 of HIV-1 (strain 3B) or HIV-2 (Zagury strain) for one hour prior to addition of the compound in six different concentrations varying from 2 to 200 μM. The cells were allowed to incubate for five days at 37° C. On day 5, NP-40, a detergent, was added to a final concentration of 0.5% immediately prior to analysis. Cell number was determined using a method which measures the fluorescence of a dye (propidium iodide) which binds to DNA. Since the amount of DNA is directly proportional to cell number, this fluorescence assay is an indication of cell growth. While uninfected cells double in cell number several times during the five days duration of the assay, HIV-infected cells grow very little, if at all. A compound which reverses the cytopathic effect of HIV would allow for rapid cell growth, approaching that of the mock-infected cells. […]

Hepatitis B Virus (HBV) = assay: Antiviral activity against HBV: extracellular HBV DNA from HepG2 2.2.15 cells; format: cell-based, human HBV; conditions: culture medium, treated at 25 μm (so in the source)
Protocol: Anti-HBV activity of compounds of formula (I) was determined using a method described by Korba B. E. and Milman G., Antiviral Research, 1991, Vol.15, pp217-228.
The assay utilises the human HBV producer cell line of HepG2, 2.2.15, described and characterized by Sells et al., PNAS 84, 1005 (1987) and J. Virol. […] This cell line was utilized in vitro to identify compounds with anti-HBV activity.
Supernatant media containing extracellular virion DNA (Dane particles) were harvested on days 0, 4 and 9, treated with proteinase K (1 mg/mL) and sodium dodecyl sulfate (1%), and incubated at 50° C. for one hour. DNA was extracted with equal volumes of phenol followed by chloroform and then precipitated using ammonium acetate and propanol. […] After precipitation by ammonium acetate and propanol, the intracellular DNA precipitate was dissolved, cut by restriction endonuclease, Hind III, applied co agarose gel and then treated as described by Southern to determine the quantity of replicative intermediate forms. The antiviral effect of the drug was determined by measuring at least a 100-fold reduction in the amount of Dane particles extruded into the culture medium and a similar decrease in the intracellular replicative intermediates.

CN(C)c1nc(N)nc2c1ncn2[C@H]1C[C@H](F)[C@@H](CO)O1 [Example 13, 2-Amino-9-(2,3-dideoxy-3-fluoro-β-D-erythro-pentofuranosyl)-6-(dimethylamino)-9H-purine]
IC50 (HIV): 8 µM | Extracellular HBV DNA, Day 0 (Hepatitis B Virus (HBV); Day 0): 60 pg/mL and 99 pg/mL and 77 pg/mL and 67 pg/mL | Extracellular HBV DNA, Day 4 (Hepatitis B Virus (HBV); Day 4): 57 pg/mL and 33 pg/mL and 53 pg/mL and 51 pg/mL
